Where two headings read alike, the source gives them in different places.
Key:
Format in all cases: in vivo
[1] = system: pigweed (Amaranthus retroflexus); assay: Test A pre-/postemergence: pigweed; details: for pest or weed control at 125 g/ha / pest or weed control at 500 g/ha: Amaranthus retroflexus, 240 h
Summary of the method: (§1)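 Plants in loam–sand blend were treated with test chemicals in non-phytotoxic solvent with surfactant, either as preemergence directed soil spray or postemergence at 2–10 cm, one- to two-leaf stage. After about ten days in greenhouse, injury was rated visually against untreated controls on a 0–100 scale (100 = complete control).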

[2] = system: wheat (Triticum aestivum); assay: Test A pre-/postemergence: wheat; details: for plant injury at 125 g/ha / plant injury at 500 g/ha: Triticum aestivum, 240 h
Summary of the method: as §1

corn (Zea mays) = assay: Test A pre-/postemergence: corn
Summary of the method: as §1

[3] = system: bermudagrass (Cynodon dactylon); assay: Test C pre-/postemergence: bermudagrass
From the text: (§2) Seeds of plant species selected from blackgrass (Alopecurus myosuroides), bromegrass, downy (downy bromegrass, Bromus tectorum), foxtail, green (green foxtail, Setaria viridis), ryegrass, Italian (Italian ryegrass, Lolium multiflorum), winter wheat (Triticum aestivum), wild oat (Avena fatua), galium (catchweed bedstraw, Galium aparine), bermudagrass (Cynodon dactylon), surinam grass (Brachiaria decumbens), cocklebur (common cocklebur, Xanthium strumarium), corn (Zea mays), large crabgrass (Digitaria sanguinalis), woolly cupgrass (Eriochloa villosa), foxtail, giant (giant foxtail, Setaria faberii), goosegrass (Eleusine indica), johnsongrass (Sorghum halepense), kochia (Kochia scoparia), lambsquarters (Chenopodium album), morningglory (Ipomoea coccinea), nightshade (eastern black nightshade, Solanum ptycanthum), nutsedge, yellow (yellow nutsedge, Cyperus esculentus), pigweed (Amaranthus retroflexus), ragweed (common ragweed, Ambrosia elation), soybean (Glycine max), common (oilseed) sunflower (Helianthus annuus), Russian thistle (Salsola kali) and velvetleaf (Abutilon theophrasti) were planted into a blend of loam soil and sand and treated preemergence with test chemicals formulated in a non-phytotoxic solvent mixture which included a surfactant.
(§3) At the same time, plants selected from these crop and weed species and also barley (winter barley, Hordeum vulgare), canarygrass (Phalaris minor), chickweed (common chickweed, Stellaria media) windgrass (Apera spica-venti) and deadnettle (henbit deadnettle, Lamium amplexicaule) were planted in pots containing Redi-Earth® planting medium (Scotts Company, 14111 Scottslawn Road, Marysville, Ohio 43041) comprising spaghnum peat moss, vermiculite, wetting agent and starter nutrients and treated with postemergence applications of test chemicals formulated in the same manner. Plants ranged in height from 2 to 18 cm (1- to 4-leaf stage) for postemergence treatments.
(§4) Treated plants and controls were maintained in a greenhouse for 13 to 15 days, after which time all species were compared to controls and visually evaluated. Plant response ratings, summarized in Table C, are based on a scale of 0 to 100 where 0 is no effect and 100 is complete control. A dash (-) response means no test result.

[4] = system: lambsquarters (Chenopodium album); assay: Test C pre-/postemergence: lambsquarters
From the text: as §2, §3, §4

[5] = system: morningglory (Ipomoea coccinea); assay: Test C pre-/postemergence: morningglory
Summary of the method: (§5)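 Preemergence on seeds in loam/sand, postemergence on 2–18 cm (1–4-leaf) plants in peat-based medium; compounds in non-phytotoxic solvent with surfactant. After 13–15 days in greenhouse, visual rating versus controls, 0 (no effect) to 100 (complete control).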

[6] = system: ragweed (common ragweed, Ambrosia elation); assay: Test C pre-/postemergence: ragweed; details: Postemergence
Summary of the method: as §5

[7] = system: common (oilseed) sunflower (Helianthus annuus); assay: Test C pre-/postemergence: sunflower; details: Preemergence
From the text: as §2, §3, §4

[8] = system: sedge, umbrella (small-flower umbrella sedge Cyperus difformis); assay: Test B flooded paddy: sedge, umbrella; details: Flood; 250 g ai/ha; applied to paddy water at 2-leaf stage; visually evaluated after 13 to 15 days
Summary of the method: (§6)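 Visual ratings on a 0–100 scale, where 0 means no effect and 100 means complete control, were assigned by comparison with controls 13 to 15 days after treatment. Compounds went into paddy water over 2-leaf plants flooded to 3 cm.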

[9] = system: ducksalad (Heteranthera limosa); assay: Test B flooded paddy: ducksalad; details: Flood; 250 g ai/ha; applied to paddy water at 2-leaf stage; visually evaluated after 13 to 15 days
Summary of the method: as §6

[10] = Postemergence, 31 g ai/ha, scale 0 to 100 (0 no effect, 100 complete control)
[11] = Postemergence, 62 g ai/ha, scale 0 to 100 (0 no effect, 100 complete control)
[12] = Postemergence, 125 g ai/ha, scale 0 to 100, 0 no effect, 100 complete control
[13] = Postemergence, 250 g ai/ha, scale 0 to 100
[14] = Preemergence, 31 g ai/ha, scale of 0 to 100, 0 is no effect, 100 is complete control
[15] = Preemergence, 125 g ai/ha, scale 0 to 100, 0 no effect, 100 complete control
[16] = Preemergence, 250 g ai/ha, scale 0 to 100, 0 no effect, 100 complete control
[17] = Preemergence, 62 g ai/ha, scale of 0 to 100, 0 is no effect, 100 is complete control
[18] = 31 g ai/ha, scale 0 to 100 (0 no effect, 100 complete control)
[19] = 62 g ai/ha, scale 0 to 100 (0 no effect, 100 complete control)
[20] = 125 g ai/ha, scale 0 to 100, 0 no effect, 100 complete control
[21] = Postemergence, 125 g ai/ha, 0 to 100 scale, 0 is no effect, 100 is complete control
[22] = Postemergence, 500 g ai/ha, visual rating on 0 to 100 scale (0 no effect, 100 complete control), approximately ten days
[23] = Preemergence, 125 g ai/ha, 0 to 100 scale (0 no effect, 100 complete control)
[24] = Preemergence, 500 g ai/ha, 0 to 100 scale, 0 is no effect, 100 is complete control
[25] = Preemergence, 125 g ai/ha, 0 to 100 scale where 0 is no effect and 100 is complete control
[26] = Preemergence, 500 g ai/ha, 0 to 100 scale (0 no effect, 100 complete control)

SMILES: FC(F)(F)COc1nn(-c2ccc(C(F)(F)F)cc2)nc1Cc1ccnc(C(F)(F)F)c1 [Compound 14, 4-[[5-(2,2,2-trifluoroethoxy)-2-[4-(trifluoromethyl)phenyl]-2H-1,2,3-triazol-4-yl]methyl]-2-(trifluoromethyl)pyridine]
- pest or weed control at 125 g/ha ([1]; post-emergence, Postemergence, 125 g ai/ha, 0 to 100 scale, 0 is no effect, 100 is complete control, read-out: Pigweed plant response rating): 100%
- pest or weed control at 500 g/ha ([1]; post-emergence, Postemergence, 500 g ai/ha, visual rating on 0 to 100 scale (0 no effect, 100 complete control), approximately ten days, read-out: Pigweed plant response rating): 100%
- pest or weed control at 125 g/ha ([1]; pre-emergence, Preemergence, 125 g ai/ha, 0 to 100 scale (0 no effect, 100 complete control), read-out: Plant response rating, Pigweed): 90%
- pest or weed control at 500 g/ha ([1]; pre-emergence, Preemergence, 500 g ai/ha, 0 to 100 scale, 0 is no effect, 100 is complete control, read-out: Plant response rating, Pigweed): 100%
- plant injury at 125 g/ha ([2]; post-emergence, Postemergence, 125 g ai/ha, 0 to 100 scale, 0 is no effect, 100 is complete control, read-out: Wheat plant response rating): 30%
- plant injury at 500 g/ha ([2]; post-emergence, Postemergence, 500 g ai/ha, visual rating on 0 to 100 scale (0 no effect, 100 complete control), approximately ten days, read-out: Wheat plant response rating): 50%
- plant injury at 125 g/ha ([2]; pre-emergence, Preemergence, 125 g ai/ha, 0 to 100 scale (0 no effect, 100 complete control), read-out: Plant response rating, Wheat): 30%
- plant injury at 500 g/ha ([2]; pre-emergence, Preemergence, 500 g ai/ha, 0 to 100 scale, 0 is no effect, 100 is complete control, read-out: Plant response rating, Wheat): 50%
- plant injury at 125 g/ha (corn (Zea mays); Zea mays, post-emergence, 240 h, Postemergence, 125 g ai/ha, 0 to 100 scale, 0 is no effect, 100 is complete control, read-out: Corn plant response rating): 20%
- plant injury at 500 g/ha (corn (Zea mays); Zea mays, post-emergence, 240 h, Postemergence, 500 g ai/ha, visual rating on 0 to 100 scale (0 no effect, 100 complete control), approximately ten days, read-out: Corn plant response rating): 40%
- Corn plant response rating (crop injury, 0 = no effect, 100 = complete kill) at 125 g/ha (corn (Zea mays); Zea mays, pre-emergence, 240 h, Preemergence, 125 g ai/ha, 0 to 100 scale (0 no effect, 100 complete control)): 20%
- Corn plant response rating (crop injury, 0 = no effect, 100 = complete kill) at 500 g/ha (corn (Zea mays); Zea mays, pre-emergence, 240 h, Preemergence, 500 g ai/ha, 0 to 100 scale, 0 is no effect, 100 is complete control): 30%
- Plant response rating, Bermudagrass [3, 10]: 0
- Plant response rating, Bermudagrass [3, 11]: 15
- Plant response rating, Bermudagrass [3, 12]: 55
- Plant response rating, Bermudagrass [3, 13]: 65
- Plant response rating, Bermudagrass [3, 14]: 98
- Plant response rating, Bermudagrass ([3]; Preemergence, 62 g ai/ha, scale 0 to 100, 0 no effect, 100 complete control): 100
- Plant response rating, Bermudagrass [3, 15]: 100
- Plant response rating, Bermudagrass [3, 16]: 100
- Plant response rating, Lambsquarters [4, 10]: 100
- Plant response rating, Lambsquarters [4, 11]: 100
- Plant response rating, Lambsquarters [4, 12]: 100
- Plant response rating, Lambsquarters [4, 13]: 100
- Plant response rating, Lambsquarters [4, 14]: 95
- Plant response rating, Lambsquarters [4, 17]: 100
- Plant response rating, Lambsquarters [4, 15]: 100
- Plant response rating, Lambsquarters [4, 16]: 100
- Plant response rating, Morningglory [5, 10]: 75
- Plant response rating, Morningglory [5, 11]: 80
- Plant response rating, Morningglory [5, 12]: 80
- Plant response rating, Morningglory [5, 13]: 95
- Plant response rating, Morningglory [5, 14]: 10
- Plant response rating, Morningglory [5, 17]: 10
- Plant response rating, Morningglory [5, 15]: 55
- Plant response rating, Morningglory [5, 16]: 65
- Plant response rating, Ragweed [6, 18]: 55
- Plant response rating, Ragweed [6, 19]: 55
- Plant response rating, Ragweed [6, 20]: 60
- Plant response rating, Ragweed ([6]; 250 g ai/ha, scale 0 to 100): 80
- Plant response rating, Sunflower ([7]; 31 g ai/ha, scale of 0 to 100, 0 is no effect, 100 is complete control): 0
- Plant response rating, Sunflower ([7]; 62 g ai/ha, scale of 0 to 100, 0 is no effect, 100 is complete control): 0
- Plant response rating, Sunflower [7, 20]: 0
- Plant response rating, Sunflower ([7]; 250 g ai/ha, scale 0 to 100, 0 no effect, 100 complete control): 15

SMILES: FC(F)(F)c1ccc(-n2nc(Cl)c(Cc3ccnc(C(F)(F)F)c3)n2)cc1 [Compound 28]
- Pigweed plant response rating [1, 21]: 100
- Pigweed plant response rating [1, 22]: 100
- Plant response rating, Pigweed [1, 23]: 100
- Plant response rating, Pigweed [1, 24]: 100
- Wheat plant response rating [2, 21]: 40
- Wheat plant response rating [2, 22]: 50
- Plant response rating, Wheat [2, 23]: 0
- Plant response rating, Wheat [2, 24]: 20
- Corn plant response rating (corn (Zea mays); [21]): 30
- Corn plant response rating (corn (Zea mays); [22]): 50
- Plant response rating, Corn (corn (Zea mays); [23]): 20
- Plant response rating, Corn (corn (Zea mays); [24]): 20
- Plant response rating, Sedge, Umbrella (0 to 100 scale, 0 is no effect, 100 is complete control) [8]: 95
- Plant response rating, Ducksalad (0 to 100 scale, 0 is no effect, 100 is complete control) [9]: 95
- Plant response rating, Bermudagrass [3, 10]: 10
- Plant response rating, Bermudagrass [3, 11]: 15
- Plant response rating, Bermudagrass [3, 12]: 20
- Plant response rating, Bermudagrass [3, 13]: 25
- Plant response rating, Lambsquarters [4, 10]: 35
- Plant response rating, Lambsquarters [4, 11]: 35
- Plant response rating, Lambsquarters [4, 12]: 95
- Plant response rating, Lambsquarters [4, 13]: 95
- Plant response rating, Ragweed [6, 18]: 35
- Plant response rating, Ragweed [6, 19]: 60
- Plant response rating, Ragweed ([6]; 250 g ai/ha, scale 0 to 100): 85

SMILES: Cc1nn(-c2ccnc(Cl)c2)nc1Cc1ccnc(C(F)(F)F)c1 [Compound 141]
- Plant response rating, Pigweed [1, 21]: 100
- Pigweed plant response rating [1, 22]: 100
- Plant response rating, Pigweed [1, 25]: 100
- Plant response rating, Pigweed [1, 26]: 100
- Plant response rating, Wheat [2, 21]: 20
- Wheat plant response rating [2, 22]: 50
- Plant response rating, Wheat [2, 25]: 0
- Plant response rating, Wheat [2, 26]: 20
- Corn plant response rating (corn (Zea mays); [21]): 30
- Corn plant response rating (corn (Zea mays); [22]): 50
- Plant response rating, Corn (corn (Zea mays); [25]): 0
- Plant response rating, Corn (corn (Zea mays); [26]): 30
- Plant response rating, Sedge, Umbrella (0 to 100 scale, 0 is no effect, 100 is complete control) [8]: 85
- Plant response rating, Ducksalad (0 to 100 scale, 0 is no effect, 100 is complete control) [9]: 85
- Plant response rating, Bermudagrass [3, 10]: 15
- Plant response rating, Bermudagrass [3, 12]: 55
- Plant response rating, Bermudagrass [3, 13]: 95
- Plant response rating, Lambsquarters [4, 10]: 98
- Plant response rating, Lambsquarters [4, 11]: 98
- Plant response rating, Lambsquarters [4, 12]: 98
- Plant response rating, Lambsquarters [4, 13]: 98
- Plant response rating, Morningglory [5, 10]: 85
- Plant response rating, Morningglory [5, 11]: 85
- Plant response rating, Morningglory [5, 12]: 95
- Plant response rating, Ragweed [6, 18]: 60
- Plant response rating, Ragweed [6, 19]: 70
- Plant response rating, Ragweed ([6]; 250 g ai/ha, scale 0 to 100): 85

From US9302999B2, “Substituted triazoles as herbicides” (E. I. DU PONT DE NEMOURS AND COMPANY, priority 2012, dated 2016)
